Patent US20160083397A1, “PARTHENOLIDE DERIVATIVES AND THEIR MODULATION OF PROCESSES CONTROLLED BY REGULATED TRANSLATION” (THE BOARD OF TRUSTEES OF THE UNIVERSITY OF ARKANSAS, priority 2013, published 2016)

What was measured:
PC-3 = settings: for GI50: PC-3, Prostate Cancer
MOLT-4 = settings: for GI50: MOLT-4, Leukemia
HS 578T = settings: for GI50: HS 578T, Breast Cancer
A498 = settings: for GI50: A498, Renal Cancer
M14 = settings: for GI50: M14, Melanoma
SNB-19 = settings: for GI50: SNB-19, CNS Cancer
ACHN [1] = test: NCI 60-cell line five dose screen: ACHN; settings: Renal Cancer
SW-620 = settings: for GI50: SW-620, Colon Cancer
NCI/ADR-RES = settings: for GI50: NCI/ADR-RES, Ovarian Cancer
NCI-H226 = settings: for GI50: NCI-H226, Lung Cancer
MCF7 = settings: for GI50: MCF7, Breast Cancer
OVCAR-8 = settings: for GI50: OVCAR-8, Ovarian Cancer
HCT-116 = settings: for GI50: HCT-116, Colon Cancer
NCI-H460 = settings: for GI50: NCI-H460, Lung Cancer
KM12 = settings: for GI50: KM12, Colon Cancer
HL-60(TB) = settings: for GI50: Leukemia
K-562 = settings: for GI50: K-562, Leukemia
OVCAR-4 = settings: for GI50: OVCAR-4, Ovarian Cancer
SN12C = settings: for GI50: SN12C, Renal Cancer
DU-145 = settings: for GI50: DU-145, Prostate Cancer
SK-MEL-2 = test: NCI 60-cell line five dose screen: SK-MEL-2; settings: SK-MEL-2, Melanoma
SR = settings: for GI50: SR, Leukemia
UACC-257 = settings: for GI50: UACC-257, Melanoma
SK-MEL-5 = settings: for GI50: SK-MEL-5, Melanoma
OVCAR-5 = settings: for GI50: OVCAR-5, Ovarian Cancer
MDA-MB-468 = settings: for GI50: MDA-MB-468, Breast Cancer
TK-10 = test: NCI 60-cell line five dose screen: TK-10; settings: TK-10, Renal Cancer
RXF 393 = test: NCI 60-cell line five dose screen: RXF 393; settings: RXF 393, Renal Cancer
ACHN [2] = system: ACHN
HCC-2998 = test: NCI 60-cell line five dose screen: HCC-2998; settings: HCC-2998, Colon Cancer

For “13-(2-iodoimidazole)parthenolide [PNR-5-65]”, the CC50 (PC-3) was > 100 µM, the GI50 (PC-3) was 23.1 µM and the CC50 (MOLT-4) was 97.9 µM. For the same substance, the GI50 (MOLT-4) was 19.6 µM, the CC50 (HS 578T) was > 100 µM and the GI50 (HS 578T) was 21.3 µM. For the same substance, the CC50 (A498) was > 100 µM, the GI50 (A498) was 45.2 µM and the CC50 (M14) was 65.6 µM. The GI50 (M14) was 16.5 µM, the CC50 (SNB-19) was > 100 µM and the GI50 (SNB-19) was > 100 µM. For the same substance, the GI50 (ACHN [1]) was 10.5 µM, the CC50 (SW-620) was 62.8 µM and the GI50 (SW-620) was 11.4 µM. The CC50 (NCI/ADR-RES) was > 100 µM, the GI50 (NCI/ADR-RES) was 31.2 µM and the CC50 (NCI-H226) was 62.3 µM. For the same substance, the GI50 (NCI-H226) was 15.4 µM, the CC50 (MCF7) was > 100 µM and the GI50 (MCF7) was 9.79 µM. It also gave a CC50 (OVCAR-8) of 59.9 µM, a GI50 (OVCAR-8) of 16.6 µM and a CC50 (HCT-116) of 49 µM. The GI50 (HCT-116) was 11.8 µM, the CC50 (NCI-H460) was > 100 µM and the GI50 (NCI-H460) was 30.1 µM. For the same substance, the CC50 (KM12) was > 100 µM, the GI50 (KM12) was 43.2 µM and the GI50 (HL-60(TB)) was 6.9 µM. It also gave a CC50 (K-562) of 90 µM, a GI50 (K-562) of 7.36 µM and a CC50 (OVCAR-4) of 60 µM. For the same substance, the GI50 (OVCAR-4) was 13.2 µM, the CC50 (SN12C) was 84.1 µM and the GI50 (SN12C) was 17.7 µM. For the same substance, the CC50 (DU-145) was 68.3 µM, the GI50 (DU-145) was 18.8 µM and the GI50 (SK-MEL-2) was 18.6 µM. The CC50 (SK-MEL-2; read-out: LC50) was 66.1 µM, the CC50 (SR) was > 100 µM and the GI50 (SR) was 13.6 µM. It also gave a CC50 (UACC-257) of 53.9 µM, a GI50 (UACC-257) of 12 µM and a CC50 (SK-MEL-5) of 95.6 µM. For the same substance, the GI50 (SK-MEL-5) was 18.5 µM, the CC50 (OVCAR-5) was 52.5 µM and the GI50 (OVCAR-5) was 13.7 µM. For the same substance, the CC50 (MDA-MB-468) was 60.4 µM and the GI50 (MDA-MB-468) was 11.1 µM.

In the case of “(E)-13-(3-thiopheno)parthenolide [PNR-5-53]”, the CC50 (PC-3) is reported as > 100 µM, the GI50 (PC-3) is reported as 22.7 µM and the CC50 (MOLT-4) is reported as > 100 µM. The GI50 (MOLT-4) was 25.7 µM, the CC50 (HS 578T) was > 100 µM and the GI50 (HS 578T) was 21.5 µM. For the same substance, the CC50 (A498) was > 100 µM, the GI50 (A498) was 17.5 µM and the CC50 (M14) was > 100 µM. For the same substance, the GI50 (M14) was 20.5 µM, the CC50 (SNB-19) was > 100 µM and the GI50 (SNB-19) was 47.6 µM. For the same substance, the GI50 (ACHN [1]) was 32.8 µM, the CC50 (SW-620) was > 100 µM and the GI50 (SW-620) was 22.9 µM. The CC50 (NCI/ADR-RES) was > 100 µM, the GI50 (NCI/ADR-RES) was 23.6 µM and the CC50 (UACC-62) was 76.6 µM. For the same substance, the GI50 (UACC-62; UACC-62, Melanoma) was 13.8 µM, the CC50 (NCI-H226) was > 100 µM and the GI50 (NCI-H226) was 30.2 µM. The CC50 (MCF7) was > 100 µM, the GI50 (MCF7) was 20 µM and the CC50 (OVCAR-8) was > 100 µM. The GI50 (OVCAR-8) was 26.9 µM, the GI50 (TK-10) was 34.7 µM and the CC50 (TK-10; read-out: LC50) was > 100 µM. The GI50 (RXF 393) was 18.1 µM, the CC50 (RXF 393; read-out: LC50) was > 100 µM and the CC50 (HCT-116) was > 100 µM. The GI50 (HCT-116) was 28.3 µM, the CC50 (NCI-H460) was > 100 µM and the GI50 (NCI-H460) was 29.3 µM. It also gave a CC50 (KM12) of 86.7 µM, a GI50 (KM12) of 20.4 µM and a GI50 (HL-60(TB)) of 21.7 µM. For the same substance, the CC50 (HL-60(TB); read-out: LC50, Leukemia) was 99.9 µM, the CC50 (K-562) was > 100 µM and the GI50 (K-562) was 25.2 µM. The CC50 (OVCAR-4) was > 100 µM, the GI50 (OVCAR-4) was 24.3 µM and the CC50 (SN12C) was > 100 µM. The GI50 (SN12C) was 25.8 µM, the CC50 (ACHN [2]) was > 100 µM and the CC50 (DU-145) was > 100 µM. The GI50 (DU-145) was 25.7 µM, the CC50 (SR) was > 100 µM and the GI50 (SR) was 20.7 µM. For the same substance, the GI50 (HCC-2998) was 33.8 µM, the CC50 (HCC-2998; read-out: LC50) was > 100 µM and the CC50 (UACC-257) was > 100 µM. The GI50 (UACC-257) was 16.6 µM, the CC50 (SK-MEL-5) was 60.4 µM and the GI50 (SK-MEL-5) was 16.3 µM. For the same substance, the CC50 (OVCAR-5) was > 100 µM, the GI50 (OVCAR-5) was 48.1 µM and the CC50 (MDA-MB-468) was > 100 µM. It also gave a GI50 (MDA-MB-468) of 17.7 µM.
